Source: PubChem BioAssay AID256 (DTP/NCI, 2004)
Several values for one entry are separate records, joined by “and”; a condition that tells them apart may be missing. Equal values may be shown once. Inconclusive results and toxic doses are left out.

Test system: CD2F1 mice, L1210 leukemia ip, survival T/C
Experiment: NCI In Vivo Anticancer Drug Screen. Data for tumor model L1210 Leukemia (intraperitoneal) in CD2F1 (CDF1) mice
Details: endpoint: mean survival time, higher = longer survival
Outline: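 Read-out first: treated-group measurement over vehicle-control measurement, expressed as a ratio. Animals bore a transplanted tumor line and were dosed with compound or vehicle.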

[1] = dose: 100.0 mg/kg/injection, schedule: Q04DX003 (ip), vehicle: saline
[2] = dose: 200.0 mg/kg/injection, schedule: Q04DX003 (ip), vehicle: saline
[3] = dose: 400.0 mg/kg/injection, schedule: Q04DX003 (ip), vehicle: saline
[4] = dose: 100.0 mg/kg/injection, schedule: Q01DX009 (ip), vehicle: saline with Tween-80
[5] = dose: 200.0 mg/kg/injection, schedule: Q01DX009 (ip), vehicle: saline with Tween-80
[6] = dose: 400.0 mg/kg/injection, schedule: Q01DX009 (ip), vehicle: saline with Tween-80
[7] = dose: 100.0 mg/kg/injection, schedule: Q04DX003 (ip), vehicle: saline with Tween-80
[8] = dose: 200.0 mg/kg/injection, schedule: Q04DX003 (ip), vehicle: saline with Tween-80
[9] = dose: 400.0 mg/kg/injection, schedule: Q04DX003 (ip), vehicle: saline with Tween-80
[10] = dose: 100.0 mg/kg/injection, schedule: Q01DX001 (ip), vehicle: saline with Tween-80
[11] = dose: 200.0 mg/kg/injection, schedule: Q01DX001 (ip), vehicle: saline with Tween-80
[12] = dose: 400.0 mg/kg/injection, schedule: Q01DX001 (ip), vehicle: saline with Tween-80
[13] = dose: 100.0 mg/kg/injection, schedule: Q04DX002 (ip), vehicle: saline with Tween-80
[14] = dose: 100.0 mg/kg/injection, schedule: Q01DX001 (ip), vehicle: saline
[15] = dose: 200.0 mg/kg/injection, schedule: Q01DX001 (ip), vehicle: saline
[16] = dose: 400.0 mg/kg/injection, schedule: Q01DX001 (ip), vehicle: saline

## O=S1(=O)CC(S(=O)(=O)O)C(S(=O)(=O)O)C1 (configuration not stated)
[1]
  T/C: 93 % of control
[2]
  T/C: 101 % of control
[3]
  T/C: 93 % of control

## CC(=O)CCC(C)=O
[4]
  T/C: 100 % of control
[1]
  T/C: 97 % of control
[5]
  T/C: 109 % of control
[2]
  T/C: 100 % of control
[6]
  T/C: 100 % of control
[3]
  T/C: 94 % of control

## COc1ccc(N2C(=O)CSC2=S)cc1
[7]
  T/C: 102 % of control
[8]
  T/C: 96 % of control
[9]
  T/C: 102 % of control

## [C-]1=CC2C=CC1C1[C-]=CC21.[Cl][Pd][Cl] (configuration not stated)
dose: 12.5 mg/kg/injection, schedule: Q01DX009 (ip), vehicle: saline with Tween-80
  T/C: 94 % of control

## O=c1nc(Sc2ccccc2)ccn1C1OC(CO)C(O)C1O (configuration not stated)
dose: 12.5 mg/kg/injection, schedule: Q01DX005 (ip), vehicle: distilled water + Tween-80
  T/C: 106 % of control
dose: 25.0 mg/kg/injection, schedule: Q01DX005 (ip), vehicle: distilled water + Tween-80
  T/C: 103 % of control
dose: 50.0 mg/kg/injection, schedule: Q01DX005 (ip), vehicle: distilled water + Tween-80
  T/C: 106 % of control
dose: 100.0 mg/kg/injection, schedule: Q01DX005 (ip), vehicle: distilled water + Tween-80
  T/C: 110 % of control
dose: 200.0 mg/kg/injection, schedule: Q01DX005 (ip), vehicle: distilled water + Tween-80
  T/C: 118 % of control

## O=S1(=O)C=Cc2ccccc2O1
dose: 75.0 mg/kg/injection, schedule: Q01DX009 (ip), vehicle: saline
  T/C: 102 % of control
dose: 75.0 mg/kg/injection, schedule: Q04DX003 (ip), vehicle: saline
  T/C: 97 % of control
dose: 150.0 mg/kg/injection, schedule: Q01DX009 (ip), vehicle: saline
  T/C: 102 % of control
dose: 150.0 mg/kg/injection, schedule: Q04DX003 (ip), vehicle: saline
  T/C: 95 % of control
dose: 300.0 mg/kg/injection, schedule: Q01DX009 (ip), vehicle: saline
  T/C: 100 % of control
dose: 300.0 mg/kg/injection, schedule: Q04DX003 (ip), vehicle: saline
  T/C: 97 % of control

## COc1ccc(Cl)cc1NC(=O)N/N=C(\C)CC(C)C
[10]
  T/C: 105 % of control
[11]
  T/C: 95 % of control
[12]
  T/C: 101 % of control

## Clc1c(Cl)c(Cl)c(Cl)c(Cl)c1Cl
[4]
  T/C: 97 % of control
[7]
  T/C: 97 % of control
[5]
  T/C: 100 % of control
[8]
  T/C: 94 % of control
[6]
  T/C: 103 % of control
[9]
  T/C: 102 % of control

## Cc1cc(=O)c2c(ccc3[nH]c(-c4ccco4)nc32)[nH]1
[13]
  T/C: 95 % of control
dose: 200.0 mg/kg/injection, schedule: Q04DX002 (ip), vehicle: saline with Tween-80
  T/C: 102 % of control
dose: 400.0 mg/kg/injection, schedule: Q04DX002 (ip), vehicle: saline with Tween-80
  T/C: 91 % of control

## CC1(C)N=C(N)N=C(N)N1c1ccc(OCCCCNC(=O)Nc2cccc(S(=O)(=O)F)c2)c(Cl)c1
dose: 25.0 mg/kg/injection, schedule: Q01DX001 (ip), vehicle: saline with Tween-80
  T/C: 105 % of control
dose: 50.0 mg/kg/injection, schedule: Q01DX001 (ip), vehicle: saline with Tween-80
  T/C: 103 % of control
[10]
  T/C: 95 % of control and 97 % of control

## O=[N+]([O-])c1ccc(Oc2ccc(S(=O)(=O)O)cc2)cc1
dose: 25.0 mg/kg/injection, schedule: Q04DX002 (ip), vehicle: saline with Tween-80
  T/C: 95 % of control
dose: 50.0 mg/kg/injection, schedule: Q04DX002 (ip), vehicle: saline with Tween-80
  T/C: 103 % of control
[13]
  T/C: 91 % of control

## C=C(C)CSc1ccccc1
dose: 5.0 mg/kg/injection, schedule: Q01DX001 (ip), vehicle: saline
  T/C: 97 % of control
dose: 10.0 mg/kg/injection, schedule: Q01DX001 (ip), vehicle: saline
  T/C: 97 % of control
dose: 20.0 mg/kg/injection, schedule: Q01DX001 (ip), vehicle: saline
  T/C: 97 % of control
dose: 40.0 mg/kg/injection, schedule: Q01DX001 (ip), vehicle: saline
  T/C: 97 % of control
dose: 80.0 mg/kg/injection, schedule: Q01DX001 (ip), vehicle: saline
  T/C: 97 % of control
[14]
  T/C: 95 % of control
[15]
  T/C: 103 % of control

## CS(=O)(=O)OCCF
dose: 1.5 mg/kg/injection, schedule: Q04DX003 (ip), vehicle: saline with Tween-80
  T/C: 98 % of control
dose: 3.0 mg/kg/injection, schedule: Q04DX003 (ip), vehicle: saline with Tween-80
  T/C: 98 % of control
dose: 6.0 mg/kg/injection, schedule: Q04DX003 (ip), vehicle: saline with Tween-80
  T/C: 103 % of control

## CCOC(=O)C([NH-])CC[NH-].[Cl][Pt+2][Cl] (configuration not stated)
dose: 12.5 mg/kg/injection, schedule: Q04DX003 (ip), vehicle: saline with Tween-80
  T/C: 182 % of control
dose: 25.0 mg/kg/injection, schedule: Q04DX003 (ip), vehicle: saline with Tween-80
  T/C: 210 % of control
dose: 50.0 mg/kg/injection, schedule: Q04DX003 (ip), vehicle: saline with Tween-80
  T/C: 93 % of control

## O=C(O)C1C2C=CC(C2)C1C(=O)O (configuration not stated)
[7]
  T/C: 97 % of control
[8]
  T/C: 92 % of control
[9]
  T/C: 98 % of control

## O=S(=O)(Nc1c2ccccc2c(NS(=O)(=O)c2ccccc2)c2ccccc12)c1ccccc1
dose: 25.0 mg/kg/injection, schedule: Q01DX001 (ip), vehicle: saline sonified
  T/C: 96 % of control
dose: 50.0 mg/kg/injection, schedule: Q01DX001 (ip), vehicle: saline sonified
  T/C: 90 % of control
dose: 100.0 mg/kg/injection, schedule: Q01DX001 (ip), vehicle: saline sonified
  T/C: 95 % of control

## O=C(O)/C=C/CC(=O)O
[14]
  T/C: 92 % of control
[15]
  T/C: 97 % of control
[16]
  T/C: 101 % of control

## O=c1n(-c2ccccc2)c(=O)n2n1CC(c1ccccc1)=N2
dose: 12.5 mg/kg/injection, schedule: Q01DX009 (ip), vehicle: other
  T/C: 97 % of control
dose: 25.0 mg/kg/injection, schedule: Q01DX009 (ip), vehicle: other
  T/C: 100 % of control
dose: 50.0 mg/kg/injection, schedule: Q01DX009 (ip), vehicle: other
  T/C: 97 % of control
dose: 100.0 mg/kg/injection, schedule: Q01DX009 (ip), vehicle: other
  T/C: 103 % of control
dose: 200.0 mg/kg/injection, schedule: Q01DX009 (ip), vehicle: other
  T/C: 96 % of control

## C1CC[N-]CC1.[Cl][Au]([Cl])[Cl]
dose: 25.0 mg/kg/injection, schedule: Q01DX009 (ip), vehicle: saline with Tween-80
  T/C: 97 % of control
dose: 50.0 mg/kg/injection, schedule: Q01DX009 (ip), vehicle: saline with Tween-80
  T/C: 100 % of control
[7]
  T/C: 96 % of control

## CN(Cc1cnc2nc(N)nc(N)c2n1)c1ccc(C(=O)NC(CCC(N)=O)C(=O)O)cc1 (configuration not stated)
dose: 1.0 mg/kg/injection, schedule: Q01DX009 (ip), vehicle: sodium bicarbonate
  T/C: 102 % of control
dose: 10.0 mg/kg/injection, schedule: Q01DX009 (ip), vehicle: sodium bicarbonate
  T/C: 118 % of control
dose: 50.0 mg/kg/injection, schedule: Q01DX009 (ip), vehicle: sodium bicarbonate
  T/C: 150 % of control
dose: 180.0 mg/kg/injection, schedule: Q04DX003 (ip), vehicle: sodium bicarbonate
  T/C: 158 % of control
dose: 268.0 mg/kg/injection, schedule: Q04DX003 (ip), vehicle: sodium bicarbonate
  T/C: 114 % of control
dose: 400.0 mg/kg/injection, schedule: Q04DX003 (ip), vehicle: sodium bicarbonate
  T/C: 110 % of control

## Cc1nc(C)c2c(n1)Oc1ccc3ccccc3c1C2
[14]
  T/C: 97 % of control
[15]
  T/C: 97 % of control
[16]
  T/C: 97 % of control

## Nc1nc(NC(c2ccc(Cl)cc2)c2ccc(Cl)cc2)c2[nH]cnc2n1
dose: 75.0 mg/kg/injection, schedule: Q01DX001 (ip), vehicle: other
  T/C: 103 % of control
dose: 150.0 mg/kg/injection, schedule: Q01DX001 (ip), vehicle: other
  T/C: 101 % of control

## NC(=O)CC(NC(=O)C(F)(F)F)C(=O)O (configuration not stated)
dose: 75.0 mg/kg/injection, schedule: Q01DX001 (ip), vehicle: saline
  T/C: 101 % of control
dose: 150.0 mg/kg/injection, schedule: Q01DX001 (ip), vehicle: saline
  T/C: 95 % of control
dose: 300.0 mg/kg/injection, schedule: Q01DX001 (ip), vehicle: saline
  T/C: 101 % of control

## Nc1ncnc2c1ncn2CCCCCO
[10]
  T/C: 96 % of control
[11]
  T/C: 91 % of control
[12]
  T/C: 91 % of control

## Cc1ccc(C(=O)CCCCl)cc1C
[4]
  T/C: 104 % of control
[5]
  T/C: 96 % of control
[6]
  T/C: 98 % of control
